Experimental findings from US11130762B2, “Azaaryl derivative, preparation method therefor, and application thereof for use in pharmacy” (Abbisko Therapeutics Co., Ltd., priority 2017, dated 2021) are described below.

Structures are written as SMILES.

One experiment has as its target CSF-1R (Homo sapiens, UniProt P07333). Kind of experiment: CSF-1R in vitro biochemical kinase study (ADP-Glo assay). The conditions noted are these: 500 μM ATP, * = average of multiple tests, read-out: Enzymatic experiment CSF1R IC50. The procedure:
A. CSF-1R In Vitro Biochemical Kinase Study
In the present invention, the inhibitory activity of compounds against the CSF-1R activity was determined by using CSF-1R ADP-Glo assay. The compound-mediated inhibition effect was achieved by inhibiting the production of ADP from consumption of ATP, and the activities of compounds were evaluated by using the ADP-Glo kit (Promega, cat. No. V9101). The specific experimental process was as follows:
1. The kinase reaction performed in the present invention was carried out in a 384-well plate (Perkinelmer, cat. No. 6007290), 3.95 nM of CSF-1R, 500 μM of ATP, and 0.2 mg/mL of polypeptide (Poly (Glu4, Try1), Sigma, cat. No. P0275) were respectively weighed and added to each well:
2. following reagents were then added to each well to reach the final reaction system: 40 mM Tris, pH 7.5, 20 mM MgCl2, 0.01% Triton X-100, 0.1 mg/mL BSA, 2.5 mM DTT, and 0.1% DMSO;
3. the reaction was conducted at 30° C. for 60 min;
4. then an equal volume of stop solution (ADP-Glo) was added to the kinase reaction system;
5. the mixed solution was incubated at 25° C. for 60 min, and the kinase reaction was then terminated;
6. a two-fold volume of detection reagent was then added to each well;
7. the mixed solution was incubated at 25° C. for 30 min;
8. the compound IC50 value was measured by using a plate reader (Tecan, M1000) and a four-parameter curve was generated in Graphpad Prism.
Background: ADP-Glo first removes unused ATP, then detects ADP through luciferase.

The test system of experiment [1] is MV-4-11 human acute monocytic leukemia cells. Kind of experiment: Cell proliferation (Cell Titer Glo), MV-4-11 cells (FLT3). The format is cell-based. The conditions noted are these: MV4-11, 72 h, 3 days, CTG, * = average of multiple tests, read-out: Cytological experiment FLT3 IC50. As for the experimental part: (§1) D. CSF-1R-Related Cell Proliferation Experiment
(§2) Functional effects of compounds on the proliferation of several cell lines were evaluated by Cell Titer Glo (CTG) studies in the present invention, and effects of the compounds on the proliferation of different cells were evaluated to determine the selectivity degree of the compounds. In the experiment, M-07e human cytomegalic leukemia cells (cat. No. CBP60791) from Nanjing Kebai Biotechnology Co., Ltd. were cultured in an incubator under conditions of RPMI1640 (Gibco, cat. No. 11875-119), 20% fetal bovine serum (Gibco, 10099-141), human 10 ng/mL GM-CSF granulocyte macrophage colony-stimulating factors (R&D, cat. No. 215-GM-010), 37° C., and 5% CO2; and Kasumi-1 human acute myeloblastic leukemia cells (cat. No. CBP60524) were cultured in an incubator under conditions of RPMI1640 (Gibco, cat. No. 11875-119), 20% fetal bovine serum (Gibco, 10099-141), 37° C., and 5% CO2: NCI-H1703 human non-small cell lung squamous carcinoma cells (cat. No. CBP60115) were cultured in an incubator under conditions of RPMI1640 (Gibco, cat. No. 11875-119), 10% fetal bovine serum (Gibco, 10099-141), 37° C., and 5% CO2; MV-4-11 human acute monocytic leukemia cells (cat. No. CBP60522) were cultured in an incubator under conditions of IMDM (Invitrogen, cat. No. 12440053), 20% fetal bovine serum (Gibco, 10099-141), 37° C., and 5% CO2. Since ATP is an index for viable cell metabolism, CTG (Promega, #G7573) reagent is a homogeneous detection method for detecting the number of viable cells in the culture by quantifying ATP. Therefore, compound-mediated inhibition for cell proliferation/survival was evaluated by quantifying ATP content in cells, and the specific experimental process was as follows.
III) MV-4-11 Human Acute Monocytic Leukemia Cell
1. The cells were inoculated into a tissue-culture-medium-treated 96-well plate (Costar #3904) with 5000 cells/well/90 μL fresh culture medium, and cultured for 24 hrs:
2. the next day, 10 μL of culture medium containing testing compound with 10-fold of final concentration was added to each well;
(§3) 3. the dosage effect was evaluated by testing 3-fold serial dilutions of the compound, which started from 18 μM;
4. after the cells were incubated for 3 days at 37° C. and 5% CO2, the inhibition on cell survival was quantified after 50 μL of CTG was added and the luminescence assay was performed;
(§4) 5. the compound concentration leading to half maximal inhibitory (IC50) and the compound concentration leading to absolute half maximal inhibitory (Absolute IC50) were measured by a plate reader (M1000, Tecan) and a four-parameter curve fit in Graphpad Prism 7.
(ATP-based viability assays read luminescence as a measure of living cells.)

The subject of experiment [2] is NCI-H1703 human non-small cell lung squamous carcinoma cells. Kind of experiment: Cell proliferation (Cell Titer Glo), NCI-H1703 cells (PDGFRA). Type of experiment: cell-based. The conditions noted are these: 72 h, 3 days, CTG, * = average of multiple tests, read-out: Cytological experiment PDGFRA IC50. The procedure: as §1, §2
II) NCI-H1703 Human Non-Small Cell Lung Squamous Carcinoma Cell
1. The cells were inoculated into a tissue-culture-medium-treated 96-well plate (Costar #3904) with 5000 cells/well/90 μL fresh culture medium, and cultured for 24 hrs;
2. the next day, 10 μL of culture medium containing testing compound with 10-fold of final concentration was added to each well:
as §3
4. after the cells were incubated for 3 days at 37° C. and 5% CO2, the inhibition on cell survival was quantified after 50 μL of CTG was added and the luminescence assay was performed:
as §4

CSF-1R, sequence (P07333 20-972): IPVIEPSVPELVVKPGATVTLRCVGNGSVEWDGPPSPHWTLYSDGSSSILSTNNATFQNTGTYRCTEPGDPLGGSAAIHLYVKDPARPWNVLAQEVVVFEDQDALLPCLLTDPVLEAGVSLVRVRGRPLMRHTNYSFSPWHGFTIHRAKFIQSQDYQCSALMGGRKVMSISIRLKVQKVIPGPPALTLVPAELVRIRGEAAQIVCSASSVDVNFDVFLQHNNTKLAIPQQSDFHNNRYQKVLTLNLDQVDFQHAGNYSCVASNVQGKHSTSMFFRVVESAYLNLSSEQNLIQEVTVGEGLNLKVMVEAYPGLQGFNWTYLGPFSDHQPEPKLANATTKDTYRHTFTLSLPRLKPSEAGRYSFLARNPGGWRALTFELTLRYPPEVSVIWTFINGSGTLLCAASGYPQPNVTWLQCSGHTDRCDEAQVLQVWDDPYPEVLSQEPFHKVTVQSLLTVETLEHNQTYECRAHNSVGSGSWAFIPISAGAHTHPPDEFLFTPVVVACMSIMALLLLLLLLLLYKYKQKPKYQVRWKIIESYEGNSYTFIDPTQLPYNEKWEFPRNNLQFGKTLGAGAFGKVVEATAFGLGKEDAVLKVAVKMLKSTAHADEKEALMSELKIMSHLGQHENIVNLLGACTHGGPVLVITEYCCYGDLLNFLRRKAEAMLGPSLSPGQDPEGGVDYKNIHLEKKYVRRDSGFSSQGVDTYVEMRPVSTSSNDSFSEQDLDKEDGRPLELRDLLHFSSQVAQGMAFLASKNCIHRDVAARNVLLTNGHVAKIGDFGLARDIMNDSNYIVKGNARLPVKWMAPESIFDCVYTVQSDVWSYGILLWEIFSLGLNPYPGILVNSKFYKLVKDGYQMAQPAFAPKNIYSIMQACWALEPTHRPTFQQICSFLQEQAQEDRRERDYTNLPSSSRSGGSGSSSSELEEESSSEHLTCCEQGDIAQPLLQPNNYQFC

What is called IC50 is the concentration needed to halve the response being measured. For `Cc1nc(-c2cnc3n(c2=O)CCCN3C)ccc1Oc1ccnc(-c2cnn(C)c2)c1` [Example 1, 9-methyl-3-(6-methyl-5-((2-(1-methyl-1H-pyrazol-4-yl)pyridin-4-yl)oxy)pyridin-2-yl)-6,7,8,9-tetrahydro-4H-pyrimido[1,2-a]pyrimidin-4-one], the IC50 at CSF-1R is 0.0737 µM; in experiment [1] it was greater than 6 µM; in experiment [2], greater than 18 µM.
Consider `CCN1CCCn2c1ncc(-c1ccc(Oc3ccnc(-c4cnn(C)c4)c3)c(C)n1)c2=O` [Example 4], for which the concentration for half-maximal inhibition (IC50) was 0.0907 µM at CSF-1R, 1.81 µM in experiment [1] and greater than 2 µM in experiment [2].
